Laboratory results reported in ChEMBL document CHEMBL4425121, “Discovery of Substituted 1H-Pyrazolo[3,4-b]pyridine Derivatives as Potent and Selective FGFR Kinase Inhibitors” (ACS Med Chem Lett, 2016).
pIC50: −log10 of the molar value.

What was measured:
[1] = molecular target: Fibroblast growth factor receptor 1 (Homo sapiens, UniProt P11362); assay: Inhibition of recombinant human FGFR1 using poly (Glu,Tyr)4:1 as substrate incubated for 60 mins by ELISA
[2] = test system: NCI-H1581; assay: Antiproliferative activity against human NCI-H1581 cells after 72 hrs by CCK-8 assay; type: functional, cell-based; settings: NCI-H1581, 72 h
[3] = Oral bioavailability in ICR mouse at 12.5 mg/kg administered as gavage by LC-MS/MS analysis; type: ADME, organism-based; settings: in vivo
[4] = Half life in ICR mouse at 12.5 mg/kg administered as oral gavage by LC-MS/MS analysis; type: ADME, organism-based; settings: in vivo
[5] = Cmax in ICR mouse at 2 mg/kg, iv by LC-MS/MS analysis; type: ADME, organism-based; design: dose 2 mg/kg, route intravenous; settings: in vivo
[6] = Protein binding in mouse plasma at 5 uM after 4 hrs by equilibrium dialysis assay; type: ADME, cell-free; settings: read-out: PPB (converted)
[7] = Clearance in ICR mouse at 2 mg/kg, iv by LC-MS/MS analysis; type: ADME, organism-based; settings: in vivo
[8] = Volume of distribution in ICR mouse at 2 mg/kg, iv by LC-MS/MS analysis; type: ADME, organism-based; settings: in vivo
[9] = AUC(0 to infinity) in ICR mouse at 2 mg/kg, iv by LC-MS/MS analysis; type: ADME, organism-based; design: dose 2 mg/kg, time infinity, route intravenous; settings: in vivo
[10] = Cmax in ICR mouse at 12.5 mg/kg administered as oral gavage by LC-MS/MS analysis; type: ADME, organism-based; design: dose 12.5 mg/kg, route oral; settings: in vivo
[11] = AUC(0 to infinity) in ICR mouse at 12.5 mg/kg administered as oral gavage by LC-MS/MS analysis; type: ADME, organism-based; design: dose 12.5 mg/kg, route oral, time infinity; settings: in vivo
[12] = Half life in ICR mouse at 2 mg/kg, iv by LC-MS/MS analysis; type: ADME, organism-based; settings: in vivo
[13] = molecular target: T1, Vascular endothelial growth factor receptor 2 (Homo sapiens, UniProt P35968); assay: Inhibition of recombinant human VEGFR2 using poly (Glu,Tyr)4:1 as substrate incubated for 60 mins by ELISA
[14] = molecular target: T1, Vascular endothelial growth factor receptor 2; assay: Inhibition of VEGFR2 (unknown origin) overexpressed in mouse NIH/ 3T3 cells incubated for 5 mins followed by stimulation with VEGF for 5 mins by immunoblotting analysis; type: cell-based
[15] = Antiproliferative activity against human KATO III cells after 72 hrs by CCK-8 assay; type: functional, cell-based
[16] = test system: NCI-H1581; settings: Homo sapiens
Description: Antitumor activity against human NCI-H1581 cells xenografted in nude mouse assessed as tumor growth inhibition administered orally qd for 21 days

[17] = molecular target: Fibroblast growth factor receptor 3 (Homo sapiens, UniProt P22607); assay: Inhibition of human FGFR3 using poly (Glu,Tyr)4:1 as substrate incubated for 60 mins by ELISA
[18] = molecular target: Fibroblast growth factor receptor 4 (Homo sapiens, UniProt P22455)
Description: Inhibition of human FGFR4 using poly (Glu,Tyr)4:1 as substrate incubated for 60 mins by ELISA

[19] = test system: SNU-16; assay: Antiproliferative activity against human SNU16 cells after 72 hrs by CCK-8 assay; type: functional, cell-based; settings: SNU-16, 72 h
[20] = test system: KG-1; assay: Antiproliferative activity against human KG1 cells after 72 hrs by CCK-8 assay; type: functional, cell-based; settings: KG-1, 72 h
[21] = test system: NCI-H1581; assay: Antitumor activity against human NCI-H1581 cells xenografted in nude mouse assessed as tumor growth inhibition at 12.5 mg/kg, po qd administered for 21 days; type: functional; settings: 504 h, read-out: TGI
[22] = molecular target: Fibroblast growth factor receptor 2 (Homo sapiens, UniProt P21802)
Description: Inhibition of human FGFR2 using poly (Glu,Tyr)4:1 as substrate incubated for 60 mins by ELISA

[23] = Toxicity in nude mouse xenografted with human NCI-H1581 cells assessed as body weight loss at 12.5 mg/kg, po qd administered for 21 days; type: organism-based; settings: in vivo, 504 h
[24] = Toxicity in nude mouse xenografted with human NCI-H1581 cells assessed as body weight loss at 50 mg/kg, po qd administered for 21 days; type: organism-based; settings: in vivo, 504 h
[25] = test system: NCI-H1581; assay: Antitumor activity against human NCI-H1581 cells xenografted in nude mouse assessed as tumor growth inhibition at 50 mg/kg, po qd administered for 21 days; type: functional; settings: 504 h, read-out: TGI
[26] = test system: RT-112; assay: Antiproliferative activity against human RT112 cells after 72 hrs by CCK-8 assay; type: functional, cell-based; settings: RT-112, 72 h

Fibroblast growth factor receptor 1, sequence (P11362 whole entry): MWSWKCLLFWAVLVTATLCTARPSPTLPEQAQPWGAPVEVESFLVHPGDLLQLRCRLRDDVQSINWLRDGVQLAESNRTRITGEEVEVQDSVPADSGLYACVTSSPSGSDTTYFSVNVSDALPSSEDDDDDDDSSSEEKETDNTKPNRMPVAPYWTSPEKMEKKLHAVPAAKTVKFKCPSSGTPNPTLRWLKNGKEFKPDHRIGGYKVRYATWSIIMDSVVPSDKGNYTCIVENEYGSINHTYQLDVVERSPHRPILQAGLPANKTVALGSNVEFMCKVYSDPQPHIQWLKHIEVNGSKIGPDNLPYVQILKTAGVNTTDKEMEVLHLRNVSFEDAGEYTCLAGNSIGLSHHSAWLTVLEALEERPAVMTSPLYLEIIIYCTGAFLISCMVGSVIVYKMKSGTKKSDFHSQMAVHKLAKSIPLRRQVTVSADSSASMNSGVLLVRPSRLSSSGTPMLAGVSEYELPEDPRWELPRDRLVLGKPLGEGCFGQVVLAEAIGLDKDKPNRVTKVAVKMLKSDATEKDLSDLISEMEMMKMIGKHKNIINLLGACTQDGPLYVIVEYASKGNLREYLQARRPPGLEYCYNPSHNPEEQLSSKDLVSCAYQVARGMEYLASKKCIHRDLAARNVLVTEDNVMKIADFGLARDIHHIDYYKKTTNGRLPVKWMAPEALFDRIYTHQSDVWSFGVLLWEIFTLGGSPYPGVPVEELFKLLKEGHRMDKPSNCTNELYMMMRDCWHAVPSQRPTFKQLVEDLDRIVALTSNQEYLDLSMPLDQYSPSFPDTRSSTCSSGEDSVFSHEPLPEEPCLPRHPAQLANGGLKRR
T1 sequence (P35968 whole entry): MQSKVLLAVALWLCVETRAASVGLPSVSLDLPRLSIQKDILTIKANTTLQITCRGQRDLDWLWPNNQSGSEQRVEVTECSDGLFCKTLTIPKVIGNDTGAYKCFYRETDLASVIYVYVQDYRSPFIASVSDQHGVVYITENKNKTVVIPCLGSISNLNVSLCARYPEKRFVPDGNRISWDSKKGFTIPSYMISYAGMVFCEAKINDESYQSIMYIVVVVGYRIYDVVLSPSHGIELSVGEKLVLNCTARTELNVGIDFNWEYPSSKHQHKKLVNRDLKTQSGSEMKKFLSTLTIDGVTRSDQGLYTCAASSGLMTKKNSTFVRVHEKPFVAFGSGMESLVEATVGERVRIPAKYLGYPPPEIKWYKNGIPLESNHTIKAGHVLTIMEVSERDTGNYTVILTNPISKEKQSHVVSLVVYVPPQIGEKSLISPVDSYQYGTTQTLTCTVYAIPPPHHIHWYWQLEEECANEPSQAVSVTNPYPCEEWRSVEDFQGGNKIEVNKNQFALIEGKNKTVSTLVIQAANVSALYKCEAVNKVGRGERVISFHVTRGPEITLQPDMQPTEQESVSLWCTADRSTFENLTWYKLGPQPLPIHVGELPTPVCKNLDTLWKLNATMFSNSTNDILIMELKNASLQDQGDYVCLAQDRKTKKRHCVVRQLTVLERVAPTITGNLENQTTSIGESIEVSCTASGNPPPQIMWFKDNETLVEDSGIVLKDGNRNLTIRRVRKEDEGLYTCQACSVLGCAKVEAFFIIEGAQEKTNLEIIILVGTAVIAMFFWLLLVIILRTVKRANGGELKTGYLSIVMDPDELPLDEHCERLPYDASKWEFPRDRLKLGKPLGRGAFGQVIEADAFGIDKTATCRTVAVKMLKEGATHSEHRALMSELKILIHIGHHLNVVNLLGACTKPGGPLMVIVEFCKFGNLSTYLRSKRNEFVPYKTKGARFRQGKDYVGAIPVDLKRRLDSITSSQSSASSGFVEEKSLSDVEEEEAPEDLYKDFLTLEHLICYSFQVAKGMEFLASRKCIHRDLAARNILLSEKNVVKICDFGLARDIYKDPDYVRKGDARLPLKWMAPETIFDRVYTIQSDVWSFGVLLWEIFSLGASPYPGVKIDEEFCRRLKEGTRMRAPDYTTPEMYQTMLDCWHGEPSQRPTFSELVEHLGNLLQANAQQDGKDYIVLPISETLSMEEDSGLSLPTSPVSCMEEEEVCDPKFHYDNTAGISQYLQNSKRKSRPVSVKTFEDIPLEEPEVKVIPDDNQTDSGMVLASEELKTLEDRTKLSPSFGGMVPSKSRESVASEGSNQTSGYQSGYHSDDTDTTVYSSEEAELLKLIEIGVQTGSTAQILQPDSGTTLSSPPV
Fibroblast growth factor receptor 4, sequence (P22455 whole entry): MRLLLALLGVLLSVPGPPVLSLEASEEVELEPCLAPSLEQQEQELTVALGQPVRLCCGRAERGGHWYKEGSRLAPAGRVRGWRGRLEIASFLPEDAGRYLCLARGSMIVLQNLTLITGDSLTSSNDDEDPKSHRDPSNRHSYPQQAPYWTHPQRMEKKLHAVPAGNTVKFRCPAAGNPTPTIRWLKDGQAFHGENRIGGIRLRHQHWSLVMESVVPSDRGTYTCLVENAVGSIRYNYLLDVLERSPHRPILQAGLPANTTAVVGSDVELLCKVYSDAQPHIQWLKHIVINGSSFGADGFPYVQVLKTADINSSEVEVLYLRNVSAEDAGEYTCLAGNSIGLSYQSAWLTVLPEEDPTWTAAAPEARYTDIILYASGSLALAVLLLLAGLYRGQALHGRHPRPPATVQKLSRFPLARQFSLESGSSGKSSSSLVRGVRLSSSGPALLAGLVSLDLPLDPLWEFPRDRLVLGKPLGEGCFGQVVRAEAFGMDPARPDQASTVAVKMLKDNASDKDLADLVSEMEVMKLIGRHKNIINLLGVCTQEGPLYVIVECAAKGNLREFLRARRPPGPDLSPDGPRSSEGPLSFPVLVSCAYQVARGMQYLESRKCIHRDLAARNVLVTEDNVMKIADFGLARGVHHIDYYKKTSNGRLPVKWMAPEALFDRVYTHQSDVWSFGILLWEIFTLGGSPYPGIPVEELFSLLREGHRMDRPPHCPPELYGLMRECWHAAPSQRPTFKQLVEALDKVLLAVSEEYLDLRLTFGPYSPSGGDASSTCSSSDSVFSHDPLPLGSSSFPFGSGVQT
Fibroblast growth factor receptor 3, sequence (P22607 whole entry): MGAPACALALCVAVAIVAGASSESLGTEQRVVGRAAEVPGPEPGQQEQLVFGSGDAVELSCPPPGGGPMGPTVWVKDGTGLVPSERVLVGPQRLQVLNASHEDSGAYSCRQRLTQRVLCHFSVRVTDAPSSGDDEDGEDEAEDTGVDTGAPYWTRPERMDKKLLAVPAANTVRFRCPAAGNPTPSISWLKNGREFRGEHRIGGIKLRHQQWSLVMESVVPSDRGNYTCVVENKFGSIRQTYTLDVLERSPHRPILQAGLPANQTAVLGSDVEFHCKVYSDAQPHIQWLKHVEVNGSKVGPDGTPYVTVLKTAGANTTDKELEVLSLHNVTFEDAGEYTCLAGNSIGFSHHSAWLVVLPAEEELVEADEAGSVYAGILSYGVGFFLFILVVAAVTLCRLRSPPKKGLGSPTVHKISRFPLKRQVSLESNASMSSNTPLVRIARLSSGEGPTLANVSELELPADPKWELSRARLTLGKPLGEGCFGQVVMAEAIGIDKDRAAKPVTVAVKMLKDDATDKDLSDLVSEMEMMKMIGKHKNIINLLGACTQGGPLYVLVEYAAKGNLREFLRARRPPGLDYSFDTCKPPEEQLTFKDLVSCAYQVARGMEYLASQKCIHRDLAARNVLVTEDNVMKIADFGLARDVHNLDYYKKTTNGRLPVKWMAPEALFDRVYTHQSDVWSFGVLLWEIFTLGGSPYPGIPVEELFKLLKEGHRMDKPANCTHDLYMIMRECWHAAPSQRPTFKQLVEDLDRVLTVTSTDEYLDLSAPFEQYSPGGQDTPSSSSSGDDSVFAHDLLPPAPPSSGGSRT
Fibroblast growth factor receptor 2, sequence (P21802 whole entry): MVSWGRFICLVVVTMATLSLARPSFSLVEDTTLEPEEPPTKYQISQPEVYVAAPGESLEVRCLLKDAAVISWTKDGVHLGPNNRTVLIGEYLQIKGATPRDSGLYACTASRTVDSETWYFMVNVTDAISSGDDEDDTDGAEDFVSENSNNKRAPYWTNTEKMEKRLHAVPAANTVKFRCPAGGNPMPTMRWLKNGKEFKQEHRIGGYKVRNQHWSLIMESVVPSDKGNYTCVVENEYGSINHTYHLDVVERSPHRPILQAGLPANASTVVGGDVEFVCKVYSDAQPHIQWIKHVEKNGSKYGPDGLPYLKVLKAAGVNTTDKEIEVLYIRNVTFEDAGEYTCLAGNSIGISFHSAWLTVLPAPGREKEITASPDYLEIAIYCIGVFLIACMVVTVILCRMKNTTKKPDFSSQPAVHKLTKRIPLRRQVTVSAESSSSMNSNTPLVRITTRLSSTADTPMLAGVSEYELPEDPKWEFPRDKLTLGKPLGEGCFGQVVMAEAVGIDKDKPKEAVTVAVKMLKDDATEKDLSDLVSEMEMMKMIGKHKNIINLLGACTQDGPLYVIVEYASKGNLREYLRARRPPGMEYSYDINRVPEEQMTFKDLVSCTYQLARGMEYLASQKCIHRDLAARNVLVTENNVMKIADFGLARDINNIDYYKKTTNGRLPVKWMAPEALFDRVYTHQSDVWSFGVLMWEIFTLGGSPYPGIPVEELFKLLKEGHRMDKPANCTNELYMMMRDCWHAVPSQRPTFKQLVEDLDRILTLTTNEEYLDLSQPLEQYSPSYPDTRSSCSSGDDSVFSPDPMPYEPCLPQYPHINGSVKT

## COc1cc(OC)c(Cl)c(-c2ccc3c(NC(=O)c4ccc(N5CCOCC5)cc4)n[nH]c3n2)c1Cl
[1]
  pIC50: 8.11
[2]
  pIC50: 6.06

## COc1cc(OC)c(Cl)c(-c2ccc3c(NC(=O)c4ccc(N5CCN(C)CC5)cc4)n[nH]c3c2)c1Cl
[1]
  pIC50: 8.48
[2]
  pIC50: 6.49

## COc1cc(N2CCN(C)CC2)ccc1C(=O)Nc1n[nH]c2nc(-c3c(Cl)c(OC)cc(OC)c3Cl)ccc12
[1]
  pIC50: 7.13
[2]
  pIC50: 6.28

## COc1cc(OC)c(Cl)c(-c2ccc3c(NC(=O)c4ccc(N5CCN(C)CC5)s4)n[nH]c3n2)c1Cl
[1]
  pIC50: 8.39
[2]
  pIC50: 8.43

## COc1cc(OC)c(Cl)c(-c2ccc3c(NC(=O)c4ccc(N5CCN(C(C)C)CC5)cc4)n[nH]c3n2)c1Cl
[1]
  pIC50: 8.85
[2]
  pIC50: 8.85

## COc1cc(OC)c(Cl)c(-c2ccc3c(NC(=O)c4ccc(N5CCN(C)CC5)cc4Cl)n[nH]c3n2)c1Cl
[1]
  pIC50: 7.85
[2]
  pIC50: 7.56

## COc1cc(OC)c(Cl)c(-c2ccc3c(NC(=O)c4ccc(N5CCCN(C)CC5)cc4)n[nH]c3n2)c1Cl
[1]
  pIC50: 8.14
[2]
  pIC50: 8.89
[3]
  bioavailability: 40.2%
[4]
  half-life: 2.9 h
[5]
  Cmax: 870 ng/mL
[6]
  fraction unbound at 4 h, 5 µM: 0.004
[7]
  clearance: 18.1 mL/min/kg
[8]
  Vd: 5.43 L/kg
[9]
  AUC(0-inf): 1840 ng·h/mL
[10]
  Cmax: 500 ng/mL
[11]
  AUC(0-inf): 4620 ng·h/mL
[12]
  half-life: 3.47 h

## COc1cc(OC)c(Cl)c(-c2ccc3c(NC(=O)c4ccc(N5CCN(C)CC5)cc4)n[nH]c3n2)c1Cl
[1]
  pIC50: 9.52
[2]
  pIC50: 8.77
[13]
  pIC50: 6.44

## COc1cc(OC)c(Cl)c(-c2ccc3c(NC(=O)c4ccc(N5CCN(C6CCC6)CC5)cc4)n[nH]c3n2)c1Cl
[1]
  pIC50: 9.70
[2]
  pIC50: 8.64

## COc1cc(OC)c(Cl)c(-c2ccc3c(NC(=O)c4ccc(N(C)CCN(C)C)cc4)n[nH]c3n2)c1Cl
[1]
  pIC50: 8.41
[2]
  pIC50: 7.96

## CCN(CC)CCCCNc1ncc2cc(-c3cc(OC)cc(OC)c3)c(NC(=O)NC(C)(C)C)nc2n1 [PD-173074]
[14]
  pIC50: 6.70 to 7.00

## COc1cc(OC)c(Cl)c(-c2ccc3c(NC(=O)c4ccc(N5CCN(C)CC5)cn4)n[nH]c3n2)c1Cl
[1]
  pIC50: 8.11
[2]
  pIC50: 8.36

## COc1cc(OC)cc(-c2ccc3c(NC(=O)c4ccc(N5CCN(C)CC5)cc4)n[nH]c3n2)c1
[1]
  pIC50: 5.43
[2]
  pIC50: < 6.00
[13]
  pIC50: 6.26

## COCCN1CCN(c2ccc(C(=O)Nc3n[nH]c4nc(-c5c(Cl)c(OC)cc(OC)c5Cl)ccc34)cc2)CC1
[15]
  pIC50: > 9.40
[16]
  TGI: Dose-dependent effect
[17]
  pIC50: 8.70
[1]
  pIC50: 9.52
[18]
  pIC50: 7.28
[2]
  pIC50: 9.15
[3]
  bioavailability: 72%
[19]
  pIC50: > 9.70
[20]
  pIC50: > 9.70
[4]
  half-life: 2.76 h
[21]
  inhibition in vivo at 12.5 mg/kg: 54%
[22]
  pIC50: 9.15
[5]
  Cmax: 826 ng/mL
[23]
  Activity: Non-Toxic
[24]
  Activity: Non-Toxic
[6]
  fraction unbound at 4 h, 5 µM: 0.004
[7]
  clearance: 16.6 mL/min/kg
[8]
  Vd: 4.51 L/kg
[9]
  AUC(0-inf): 2000 ng·h/mL
[25]
  inhibition in vivo at 50 mg/kg: 100%
[10]
  Cmax: 1650 ng/mL
[26]
  pIC50: > 9.70
[11]
  AUC(0-inf): 9010 ng·h/mL
[12]
  half-life: 3.13 h

## C=CCN1CCN(c2ccc(C(=O)Nc3n[nH]c4nc(-c5c(Cl)c(OC)cc(OC)c5Cl)ccc34)cc2)CC1
[1]
  pIC50: 9.22
[2]
  pIC50: 8.48

## COc1cc(CCc2cc(NC(=O)c3ccc(N4C[C@@H](C)N[C@@H](C)C4)cc3)n[nH]2)cc(OC)c1 [FEXAGRATINIB]
[15]
  pIC50: 7.69
[2]
  pIC50: 7.42
[3]
  bioavailability: 74.7%
[19]
  pIC50: 8.92
[20]
  pIC50: > 9.70
[4]
  half-life: 2.55 h
[21]
  inhibition in vivo at 12.5 mg/kg: 77.1%
[5]
  Cmax: 1880 ng/mL
[6]
  fraction unbound at 4 h, 5 µM: 0.007
[7]
  clearance: 16.1 mL/min/kg
[8]
  Vd: 3.18 L/kg
[9]
  AUC(0-inf): 2080 ng·h/mL
[10]
  Cmax: 1350 ng/mL
[26]
  pIC50: 9.22
[11]
  AUC(0-inf): 9130 ng·h/mL
[12]
  half-life: 2.29 h

## COc1cc(OC)c(Cl)c(-c2ccc3c(NC(=O)c4ccc(N5CCN(C)CC5)cc4)nn(C)c3n2)c1Cl
[1]
  pIC50: < 5.30

## COc1cc(OC)c(Cl)c(-c2ccc3c(NC(=O)c4ccc(N5CCN(C)CC5)c(Cl)c4)n[nH]c3n2)c1Cl
[1]
  pIC50: 7.84
[2]
  pIC50: 6.72

## COc1cc(OC)c(Cl)c(-c2ccc3c(NC(=O)c4ccc(N(C)C)cc4)n[nH]c3n2)c1Cl
[1]
  pIC50: 7.78
[2]
  pIC50: 6.53

## COc1cc(OC)c(Cl)c(-c2ccc3c(NC(=O)c4ccc(C5CCN(C)CC5)cc4)n[nH]c3n2)c1Cl
[1]
  pIC50: 8.16
[2]
  pIC50: 8.09

## COc1cc(OC)c(Cl)c(-c2ccc3c(NC(=O)c4ccc(N5CCNCC5)cc4)n[nH]c3n2)c1Cl
[1]
  pIC50: 7.93
[2]
  pIC50: 8.85

## COc1cc(OC)c(Cl)c(-c2ccc3c(NC(=O)c4ccc(N5CCN(C(C)=O)CC5)cc4)n[nH]c3n2)c1Cl
[1]
  pIC50: 9.52
[2]
  pIC50: 7.36

## CCN1CCN(c2ccc(C(=O)Nc3n[nH]c4nc(-c5c(Cl)c(OC)cc(OC)c5Cl)ccc34)cc2)CC1
[1]
  pIC50: 9.30
[2]
  pIC50: 9.15

## COc1cc(OC)c(Cl)c(-c2ccc3c(NC(=O)c4ccc(N5CCN(C)CC5)nc4)n[nH]c3n2)c1Cl
[1]
  pIC50: 8.21
[2]
  pIC50: 8.82

## COc1cc(OC)c(Cl)c(-c2ccc3c(NC(=O)c4ccc(N5CCN(CCO)CC5)cc4)n[nH]c3n2)c1Cl
[1]
  pIC50: 9.52
[2]
  pIC50: > 9.30
[3]
  bioavailability: 52.3%
[4]
  half-life: 3.38 h
[5]
  Cmax: 796 ng/mL
[6]
  fraction unbound at 4 h, 5 µM: 0.005
[7]
  clearance: 31 mL/min/kg
[8]
  Vd: 10 L/kg
[9]
  AUC(0-inf): 1080 ng·h/mL
[10]
  Cmax: 802 ng/mL
[11]
  AUC(0-inf): 3510 ng·h/mL
[12]
  half-life: 3.74 h

## COc1cc(OC)c(Cl)c(-c2ccc3c(NC(=O)c4ccc(N5CCCCC5)cc4)n[nH]c3n2)c1Cl
[1]
  pIC50: 8.06
[2]
  pIC50: 6.25

## COc1cc(OC)c(Cl)c(-c2ccc3c(NC(=O)c4ccc(N5CCN(S(C)(=O)=O)CC5)cc4)n[nH]c3n2)c1Cl
[1]
  pIC50: 9.70
[2]
  pIC50: 6.61

## COc1cc(C(=O)Nc2n[nH]c3nc(-c4c(Cl)c(OC)cc(OC)c4Cl)ccc23)ccc1N1CCN(C)CC1
[1]
  pIC50: 7.85
[2]
  pIC50: 7.81

## COc1cc(OC)c(Cl)c(-c2ccc3c(NC(=O)c4ccc(N)cc4)n[nH]c3n2)c1Cl
[1]
  pIC50: 8.06
[2]
  pIC50: 6.66

## COc1cc(OC)c(Cl)c(-c2ccc3c(NC(=O)c4cnc(N5CCN(C)CC5)cn4)n[nH]c3n2)c1Cl
[1]
  pIC50: 7.98
[2]
  pIC50: 7.22

## COc1cc(OC)c(Cl)c(-c2ccc3c(NC(=O)c4ccccc4)n[nH]c3n2)c1Cl
[1]
  pIC50: 7.37
[2]
  pIC50: < 6.00
